Our source for the Observed efficacy values is US10548321B2 (priority 2009, dated 2020).

Where two headings read alike, the source gives them in different places.

This experiment relates to Pyricularia oryzae. Type of experiment: cell-based. The settings on record: single active, absorption at 405 nm 7 days after inoculation, 18° C.

`COC(=O)N(OC)c1ccccc1COc1ccn(-c2ccc(Cl)cc2)n1` [Pyraclostrobin, pyraclostrobin] returned an Observed efficacy (0.004 ppm) of 23%.

Compound `CC1(C)C(C=C(Cl)Cl)C1C(=O)OC(C#N)c1cccc(Oc2ccccc2)c1` (stereo not drawn) [alpha-Cypermethrin, alpha-cypermethrin] came in with an Observed efficacy (1 ppm) of 1%.
